For one assay, the target named is T1, ENPP-1, MDA-MB-231 cells (Homo sapiens, UniProt P22413).
T1 sequence (P22413 1-925): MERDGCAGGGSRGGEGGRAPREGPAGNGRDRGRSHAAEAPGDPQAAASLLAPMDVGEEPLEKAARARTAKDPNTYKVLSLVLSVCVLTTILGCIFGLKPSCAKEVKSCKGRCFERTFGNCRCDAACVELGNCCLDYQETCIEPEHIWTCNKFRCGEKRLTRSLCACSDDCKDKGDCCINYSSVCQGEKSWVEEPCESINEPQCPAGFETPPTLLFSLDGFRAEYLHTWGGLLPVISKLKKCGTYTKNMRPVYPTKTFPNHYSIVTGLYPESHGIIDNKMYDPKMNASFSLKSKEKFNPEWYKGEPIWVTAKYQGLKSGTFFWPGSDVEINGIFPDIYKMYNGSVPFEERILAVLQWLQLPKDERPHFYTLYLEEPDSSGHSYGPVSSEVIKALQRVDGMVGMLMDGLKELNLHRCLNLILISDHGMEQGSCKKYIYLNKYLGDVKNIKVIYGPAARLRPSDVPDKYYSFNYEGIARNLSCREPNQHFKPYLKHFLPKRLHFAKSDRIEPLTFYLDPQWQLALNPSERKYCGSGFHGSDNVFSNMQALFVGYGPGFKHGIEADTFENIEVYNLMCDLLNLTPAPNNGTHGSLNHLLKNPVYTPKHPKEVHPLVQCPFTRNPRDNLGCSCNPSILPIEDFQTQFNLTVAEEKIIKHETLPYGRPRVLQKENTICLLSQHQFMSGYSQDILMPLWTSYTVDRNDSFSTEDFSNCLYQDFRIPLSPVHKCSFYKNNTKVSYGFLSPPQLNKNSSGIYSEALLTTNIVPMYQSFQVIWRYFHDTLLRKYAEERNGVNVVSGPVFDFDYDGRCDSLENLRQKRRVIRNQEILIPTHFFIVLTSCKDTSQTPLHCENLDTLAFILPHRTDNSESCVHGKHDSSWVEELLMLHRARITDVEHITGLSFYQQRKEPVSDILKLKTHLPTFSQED
Briefly: cell-based. The following applies: for inhibition at 20 µM: MDA-MB-231, read-out: % Inhibition (at 20 μM). On the procedure:
ENPP-1 were mainly expressed on the surface of cell membrane where it hydrolytes 2′3′-cGAMP to generate 5′-GMP and 5′-AMP. ENPP-1 also has the ability to hydrolyzes artificial phosphoric acid ester TMP-pNP to nucleotide-5′-monophosphate and p-nitrophcnol there, which is a chromogenic product.
8 point of different concentrations of each inhibitor were prepared with the final assay concentrations starting at 20 μM. 3× series dilution by DMEM medium without FBS was applied. Prior to adding inhibitors, 75000 cells per well were incubated at 37° C., 5% CO2 in DMEM for 24 hours. After removing the supernatant medium, 50 μL inhibitor solution was added into each well with cultured cells and incubate at 37° C., 5% CO2 for 60 minutes.
(§1) The IC50 values for percent inhibition versus compound concentration are determined by fitting the inhibition curves using a four-parameter variable slope model in GraphPad Prism® 8.

Assay [1] concerns the target T2, human soluble ENPP1 (Homo sapiens, UniProt P22413).
T2 construct: 20 ng of human soluble ENPP1
T2 sequence (P22413 103-925 limits assumed): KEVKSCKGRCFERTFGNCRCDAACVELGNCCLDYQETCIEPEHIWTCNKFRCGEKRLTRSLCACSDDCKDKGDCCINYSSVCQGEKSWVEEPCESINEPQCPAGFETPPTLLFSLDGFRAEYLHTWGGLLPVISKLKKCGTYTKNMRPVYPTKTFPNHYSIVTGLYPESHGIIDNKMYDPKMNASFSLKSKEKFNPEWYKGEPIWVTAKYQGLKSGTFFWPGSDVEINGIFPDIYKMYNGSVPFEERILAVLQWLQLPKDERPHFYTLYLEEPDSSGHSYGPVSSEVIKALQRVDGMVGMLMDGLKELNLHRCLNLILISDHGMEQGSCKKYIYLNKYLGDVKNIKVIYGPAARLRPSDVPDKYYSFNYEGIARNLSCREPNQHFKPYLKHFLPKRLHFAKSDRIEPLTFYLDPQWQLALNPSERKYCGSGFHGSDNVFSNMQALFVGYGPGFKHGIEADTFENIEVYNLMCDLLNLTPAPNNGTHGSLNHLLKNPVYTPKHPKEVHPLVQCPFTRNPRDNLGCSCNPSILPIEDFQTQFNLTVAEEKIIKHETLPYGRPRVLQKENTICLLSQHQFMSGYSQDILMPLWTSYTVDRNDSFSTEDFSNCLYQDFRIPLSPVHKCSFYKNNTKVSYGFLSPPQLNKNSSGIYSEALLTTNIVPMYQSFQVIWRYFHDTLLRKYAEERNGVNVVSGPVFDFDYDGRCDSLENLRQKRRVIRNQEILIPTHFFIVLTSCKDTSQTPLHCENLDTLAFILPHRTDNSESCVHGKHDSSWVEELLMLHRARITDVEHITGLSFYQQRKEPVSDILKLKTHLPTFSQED
Briefly: ENPP1 activity assay using p-Nitrophenyl-5′-AMP as a substrate. Type of assay: biochemical. As for the experimental part: AMP-pNP can be used as substrate of ENPP-1. Its hydrolysis products were nucleotide-5′-monophosphate and p-nitrophcnol, which is also a chromogenic product. The amount of p-nitrophenol product formed is measured using its absorbance at 405 nm, which is directly proportional to enzyme activity.
Load into a well with […] of human soluble ENPP1 in 50 μL and incubate at room temperature with 25 μL inhibitor solution (4× Final Concentration) for 30 mins prior adding 25 μL 3 mM AMP solution (2× Final Concentration) into the well, Incubate at RT for 1 hour. The amounts of released p-nitrophenolate were measured by reading OD value at 405 nm.
(§2) The percent inhibition at each compound is calculated as follows: % inhibition=(ODMAX−ODCOMPOUND)/(ODMAX−ODMIN)*100. (MAX: absence of ENPP1 inhibitors control, MIN: blank control.)
as §1

In assay [2] the target is T2, human soluble ENPP1. Briefly: ENPP1 activity assay using p-Nitrophenyl-5′-TMP as a substrate. The assay is classed as biochemical. On the procedure:
ENPP1 is a transmembrane glycoprotein that hydrolyzes nucleotides and nucleotide derivatives with the formation of nucleotide-5′-monophosphates. ENPP1 hydrolyzes artificial phosphoric acid ester thymidine 5′monophosphate p-nitrophenyl ester (TMP-pNP) to nucleotide-5′-monophosphate and p-nitrophenol, which is a chromogenic product.
Load into a well with 20 ng of human soluble ENPP1 in 50 μL and incubate at room temperature with 25 μL inhibitor solution (4× Final Concentration) for 30 mins. Then, add 25 μL 2 mM TMP solution (2× Final Concentration) into the well, Incubate at RT for 1 hour.
as §2
The IC50 values for percent inhibition versus compound concentration were determined by fitting the inhibition curves using a four-parameter variable slope model in GraphPad Prism® 8.

Setting [3] is: substrate TMP-pNP, 20 ng human soluble ENPP1, Tris buffer pH 9.5, read-out: TMP-pNP (IC50).

The structures appear in SMILES notation. Some results are limits rather than exact numbers.

A word on the IC50: it is the concentration needed to halve the response being measured. As a reminder, the inhibition is the change of the read-out against control, counted positive when it falls.

Turning to `COc1ccc2c(ncc3ncn(Cc4ccc(S(N)(=O)=O)c(OC)c4)c32)n1` [Compound 64, 2-methoxy-4-((7-methoxy-1H-imidazo[4,5-c][1,8]naphthyridin-1-yl)methyl)benzenesulfonamide], the IC50 is 4700 nM against ENPP-1, MDA-MB-231 cells; 8.9 nM at human soluble ENPP1 [1]; 2.8 nM on human soluble ENPP1 [2]. Further, at ENPP-1, MDA-MB-231 cells, the inhibition at 20 µM came to 68%.

As for `COc1ccc2c(ncc3nc(CS(C)(=O)=O)n(Cc4ccc(S(N)(=O)=O)c(F)c4)c32)n1` [Compound 81, 2-fluoro-4-((7-methoxy-2-((methylsulfonyl)methyl)-1H-imidazo[4,5-c][1,8]naphthyridin-1-yl)methyl)benzenesulfonamide], the half-maximal inhibitory concentration (IC50) against ENPP-1, MDA-MB-231 cells stood at 4900 nM; at human soluble ENPP1 [1] it was 23 nM; against human soluble ENPP1 [2], 6.9 nM. The inhibition at 20 µM at ENPP-1, MDA-MB-231 cells stood at 63%.

Regarding `COc1ccc2c(ncc3nc(C4CN(S(C)(=O)=O)C4)n(Cc4ccc(S(N)(=O)=O)c(F)c4)c32)n1` [Compound 86, 2-fluoro-4-((7-methoxy-2-(1-(methylsulfonyl)azetidin-3-yl)-1H-imidazo[4,5-c][1,8]naphthyridin-1-yl)methyl)benzenesulfonamide], the IC50 at ENPP-1, MDA-MB-231 cells is 620 nM; against human soluble ENPP1 [1] it was 3.2 nM; against human soluble ENPP1 [2], 0.81 nM. Besides, on ENPP-1, MDA-MB-231 cells, the inhibition at 20 µM is 80%.

For the compound `COc1ccc2c(ncc3cnn(Cc4ccc(S(N)(=O)=O)cn4)c32)n1` [Compound 135a, 6-((7-methoxy-1H-pyrazolo[4,3-c][1,8]naphthyridin-1-yl)methyl)pyridine-3-sulfonamide], the half-maximal inhibitory concentration (IC50) was 80 nM at ENPP-1, MDA-MB-231 cells; 1.4 nM against human soluble ENPP1 [1]; 0.66 nM at human soluble ENPP1 [2]. Moreover, the inhibition at 20 µM on ENPP-1, MDA-MB-231 cells worked out at 88%.

As to `COc1ccc2c(c1)nnc1[nH]c(=O)n(Cc3ccc(S(N)(=O)=O)cc3F)c12` [Compound 123, 3-fluoro-4-((7-methoxy-2-oxo-2,3-dihydro-1H-imidazo[4,5-c]cinnolin-1-yl)methyl)benzenesulfonamide], the IC50 was determined as 1800 nM at ENPP-1, MDA-MB-231 cells; 2.4 nM on human soluble ENPP1 [1]; 0.61 nM on human soluble ENPP1 [2] (setting [3]). Also, the inhibition at 20 µM on ENPP-1, MDA-MB-231 cells stood at 66%.

On to `COc1ccc2c(ncc3[nH]c(=O)n(Cc4c(F)cc(C(=O)NO)cc4F)c32)n1` [Compound 110, 3,5-difluoro-N-hydroxy-4-((7-methoxy-2-oxo-2,3-dihydro-1H-imidazo[4,5-c][1,8]naphthyridin-1-yl)methyl)benzamide], for which the IC50 against ENPP-1, MDA-MB-231 cells turned out to be 150 nM; against human soluble ENPP1 [1], 2.6 nM; at human soluble ENPP1 [2] (setting [3]) it was 0.6 nM. The inhibition at 20 µM at ENPP-1, MDA-MB-231 cells came to 86%.

For `COc1ccc2c(ncc3ncn([C@H](C)c4ccc(S(N)(=O)=O)cc4)c32)n1` [Compound 54, (R)-4-(1-(7-methoxy-1H-imidazo[4,5-c][1,8]naphthyridin-1-yl)ethyl)benzenesulfonamide], the half-inhibitory concentration (IC50) at ENPP-1, MDA-MB-231 cells is 900 nM; on human soluble ENPP1 [1], 1.8 nM; on human soluble ENPP1 [2] it was 0.53 nM. For the same compound, the inhibition at 20 µM at ENPP-1, MDA-MB-231 cells stood at 82%.

For `COc1ccc2c(ncc3[nH]c(=O)n(CC4CC(OS(N)(=O)=O)C4)c32)n1` (stereo not shown) [Compound 97, 3-((7-methoxy-2-oxo-2,3-dihydro-1H-imidazo[4,5-c][1,8]naphthyridin-1-yl)methyl)cyclobutyl sulfamate], the half-inhibitory concentration (IC50) was 810 nM on ENPP-1, MDA-MB-231 cells; 1.1 nM at human soluble ENPP1 [1]; 0.56 nM on human soluble ENPP1 [2]. The inhibition at 20 µM at ENPP-1, MDA-MB-231 cells worked out at 78%.

`COc1ccc2c(ncc3ccn(Cc4ccc(S(N)(=O)=O)cc4)c32)n1` [Compound 117, 4-((7-methoxy-1H-pyrrolo[3,2-c][1,8]naphthyridin-1-yl)methyl)benzenesulfonamide]: the IC50 against ENPP-1, MDA-MB-231 cells came out at 16000 nM; at human soluble ENPP1 [1] it was 34 nM; against human soluble ENPP1 [2] it was 8.1 nM. Further, the inhibition at 20 µM on ENPP-1, MDA-MB-231 cells was 16%.

As for `COc1ccc2c(ncc3nc(C)n(Cc4cc(F)c(P(=O)(O)O)cc4F)c32)n1` [Compound 125, (2,5-difluoro-4-((7-methoxy-2-methyl-1H-imidazo[4,5-c][1,8]naphthyridin-1-yl)methyl)phenyl)phosphonic acid], the IC50 against ENPP-1, MDA-MB-231 cells came out at 2.7 nM; against human soluble ENPP1 [1], 21 nM; on human soluble ENPP1 [2], 7.2 nM. The inhibition at 20 µM at ENPP-1, MDA-MB-231 cells was 82%.

Turning to `COc1ccc2c(n1)nc(C)c1nc(C)n(Cc3ncc(S(N)(=O)=O)cn3)c12` [Compound 91a, 2-((7-methoxy-2,4-dimethyl-1H-imidazo[4,5-c][1,8]naphthyridin-1-yl)methyl)pyrimidine-5-sulfonamide], the IC50 at ENPP-1, MDA-MB-231 cells is > 6700 nM; against human soluble ENPP1 [1], 323 nM; on human soluble ENPP1 [2] (setting [3]) it was 83 nM. Further, on ENPP-1, MDA-MB-231 cells, the inhibition at 20 µM is 53%.

Regarding `COc1ccc2c(ncc3nc(C)n(Cc4ccc(S(=O)(=O)NC(C)=O)c(F)c4)c32)n1` [Compound 76, N-((2-fluoro-4-((7-methoxy-2-methyl-1H-imidazo[4,5-c][1,8]naphthyridin-1-yl)methyl)phenyl)sulfonyl)acetamide], the IC50 was 6900 nM against ENPP-1, MDA-MB-231 cells; 26 nM at human soluble ENPP1 [1]; 13 nM on human soluble ENPP1 [2] (setting [3]). Also, the inhibition at 20 µM at ENPP-1, MDA-MB-231 cells was determined as 51%.

With `COc1ccc2c(ncc3ncn(Cc4ccc(S(N)(=O)=O)c(OC(F)(F)F)c4)c32)n1` [Compound 66, 4-((7-methoxy-1H-imidazo[4,5-c][1,8]naphthyridin-1-yl)methyl)-2-(trifluoromethoxy)benzenesulfonamide], the IC50 against ENPP-1, MDA-MB-231 cells is 3400 nM; against human soluble ENPP1 [1], 13 nM; against human soluble ENPP1 [2] it was 3 nM. On ENPP-1, MDA-MB-231 cells, the inhibition at 20 µM is 71%.
